The target in one test is T1, CDK9 (Homo sapiens, UniProt P50750).
T1 construct: endogenous in cells; host or cells: MDA-MB-231
Description: CDK protein degradation activity (Western blotting), CDK9. The format is cell-based. Particulars: MDA-MB-231 cells, 16 hours, Western blot. As to the method: (§1) In order to evaluate the CDK protein degradation activity of the compounds according to the present invention, the following experiment was conducted.
(§2) MDA-MB-231 cells were seeded at 5×10^5 cells per well in a 6-well plate. The next day, the compounds were treated in each well to achieve final concentrations of 100 nM, 1 μM, and 10 μM. For the control group, an equal amount of DMSO was treated in the well as the compound. After 16 hours of treatment, cells were collected, and cell lysates were prepared using Triton X-100 lysis buffer (50 mM HEPES, pH 7.5, 40 mM NaCl, 1% Triton X-100, 1 mM EDTA, 1 mM EGTA, 10 mM pyrophosphate, 10 mM β-glycerophosphate, 50 mM NaF, 1 mM NaVO4, protease inhibitor). Cell lysates were quantified and separated by size using sodium dodecyl sulfate-polyacrylamide gel electrophoresis (SDS-PAGE). Western blotting was then performed using antibodies that recognize CDK2, CDK9, and tubulin, respectively. The results obtained by Western blotting were quantitatively analyzed using the ImageJ program, and representative images according to the experimental results are shown in FIG. 1.
For orientation: In western blotting, separated proteins are transferred to a membrane and probed.

Another test has as its target T2, CDK2 (Homo sapiens, UniProt P24941).
T2 construct: endogenous in cells; host or cells: MDA-MB-231
Description: CDK protein degradation activity (Western blotting), CDK2. As to conditions: MDA-MB-231 cells, 16 hours, Western blot. Format: cell-based. As to the method: as §1, §2

T1 sequence (P50750 whole entry): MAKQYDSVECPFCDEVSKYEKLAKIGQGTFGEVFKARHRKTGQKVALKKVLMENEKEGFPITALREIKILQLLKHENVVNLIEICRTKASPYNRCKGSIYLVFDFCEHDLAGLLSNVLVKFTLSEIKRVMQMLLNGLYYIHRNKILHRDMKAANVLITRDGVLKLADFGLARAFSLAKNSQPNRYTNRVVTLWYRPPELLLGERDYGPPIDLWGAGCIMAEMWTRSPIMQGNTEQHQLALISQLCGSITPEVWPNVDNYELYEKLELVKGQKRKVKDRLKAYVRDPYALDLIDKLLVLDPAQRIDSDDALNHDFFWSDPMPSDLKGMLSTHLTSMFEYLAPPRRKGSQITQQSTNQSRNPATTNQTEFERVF

Take `Cc1cccc(C(=O)NC2CC(n3cnc4c(NCc5ccc(N6CCN(CC7CCN(C(=O)CNc8ccc9c(c8)C(=O)N([C@H]8CCC(=O)NC8=O)C9=O)CC7)CC6)cc5)ncnc43)C2)n1` (stereo partly drawn) [Compound 153, N-((1s,3s)-3-(6-((4-(4-((1-((2-(2,6-dioxopiperidin-3-yl)-1,3-dioxoisoindolin-5-yl)glycyl)piperidin-4-yl)methyl)piperazin-1-yl)benzyl)amino)-9H-purin-9-yl)cyclobutyl)-6-methylpicolinamide]: on CDK9, the “Enzyme degradation CDK9 (% remaining) @ 0.1 μM” value was 0/0/0%, the “Enzyme degradation CDK9 (% remaining) @ 1 μM” value is 0/0/0% and the “Enzyme degradation CDK9 (% remaining) @ 10 μM” value is 0/0/0%. In addition, on CDK2, the “Enzyme degradation CDK2 (% remaining) @ 0.1 μM” value is listed as 10/10/10%, the “Enzyme degradation CDK2 (% remaining) @ 1 μM” value is listed as 10/10/10% and the “Enzyme degradation CDK2 (% remaining) @ 10 μM” value is given as 10/10/10%.
Take `Cc1cccc(C(=O)NC2CC(n3cnc4c(Nc5ccc(N6CCN(CCC7CCN(C(=O)C8CCN(c9cc%10c(cc9F)C(=O)N([C@H]9CCC(=O)NC9=O)C%10=O)CC8)CC7)CC6)cc5)ncnc43)C2)n1` (stereo partly drawn) [Compound 449, N-((1s,3s)-3-(6-((4-(4-(2-(1-(1-(2-(2,6-dioxopiperidin-3-yl)-6-fluoro-1,3-dioxoisoindolin-5-yl)piperidin-4-carbonyl)piperidin-4-yl)ethyl)piperazin-1-yl)phenyl)amino)-9H-purin-9-yl)cyclobutyl)-6-methylpicolinamide]: on CDK9, the “Enzyme degradation CDK9 (% remaining) @ 0.1 μM” value is 10/10/10%, the “Enzyme degradation CDK9 (% remaining) @ 1 μM” value is recorded as 10/10/10% and the “Enzyme degradation CDK9 (% remaining) @ 10 μM” value is on record as 10/10/10%. At CDK2, the “Enzyme degradation CDK2 (% remaining) @ 0.1 μM” value was 50%, the “Enzyme degradation CDK2 (% remaining) @ 1 μM” value is reported as 40% and the “Enzyme degradation CDK2 (% remaining) @ 10 μM” value is reported as 40%.
With `O=C1CCC(n2nnc3ccc(N4CC(N5CCN(c6ccc(Nc7ncnc8c7ncn8[C@H]7C[C@@H](NC(=O)Cc8ccccc8)C7)cc6)CC5)C4)cc3c2=O)C(=O)N1` (stereo partly drawn) [Compound 346, N-((1s,3s)-3-(6-((4-(4-(1-(3-(2,6-dioxopiperidin-3-yl)-4-oxo-3,4-dihydrobenzo[d][1,2,3]triazin-6-yl)azetidin-3-yl)piperazin-1-yl)phenyl)amino)-9H-purin-9-yl)cyclobutyl)-2-phenylacetamide], on CDK9, the “Enzyme degradation CDK9 (% remaining) @ 0.1 μM” value was 30/30/30%, the “Enzyme degradation CDK9 (% remaining) @ 1 μM” value is reported as 30/30/30% and the “Enzyme degradation CDK9 (% remaining) @ 10 μM” value is 30/30/30%. In addition, on CDK2, the “Enzyme degradation CDK2 (% remaining) @ 0.1 μM” value is 10%, the “Enzyme degradation CDK2 (% remaining) @ 1 μM” value is on record as 0% and the “Enzyme degradation CDK2 (% remaining) @ 10 μM” value turned out to be 0%.
Regarding `O=C1CC[C@H](N2C(=O)c3ccc(N4CCC(C(=O)N5CCC6(CC5)CC(N5CCN(c7ccc(Nc8ncnc9c8ncn9[C@H]8C[C@@H](NC(=O)c9c(Cl)cccc9Cl)C8)cc7)CC5)C6)CC4)cc3C2=O)C(=O)N1` [Compound 376, 2,6-dichloro-N-((1s,3s)-3-(6-((4-(4-(7-(1-(2-(2,6-dioxopiperidin-3-yl)-1,3-dioxoisoindolin-5-yl)piperidin-4-carbonyl)-7-azaspiro[3.5]nonan-2-yl)piperazin-1-yl)phenyl)amino)-9H-purin-9-yl)cyclobutyl)benzamide], at CDK9, the “Enzyme degradation CDK9 (% remaining) @ 0.1 μM” value is recorded as 10/10/10%, the “Enzyme degradation CDK9 (% remaining) @ 1 μM” value is listed as 10/10/10% and the “Enzyme degradation CDK9 (% remaining) @ 10 μM” value is 10/10/10%. Besides, on CDK2, the “Enzyme degradation CDK2 (% remaining) @ 0.1 μM” value was 30/30/30%, the “Enzyme degradation CDK2 (% remaining) @ 1 μM” value was 30/30/30% and the “Enzyme degradation CDK2 (% remaining) @ 10 μM” value was 30/30/30%.
With `Cc1cccc(C(=O)NC2CC(n3cnc4c(NC5CCN(C(=O)CC6CCN(C(=O)CNc7ccc8c(c7)C(=O)N([C@H]7CCC(=O)NC7=O)C8=O)CC6)CC5)ncnc43)C2)n1` (stereo partly drawn) [Compound 51, N-((1s,3s)-3-(6-((1-(2-(1-((2-(2,6-dioxopiperidin-3-yl)-1,3-dioxoisoindolin-5-yl)glycyl)piperidin-4-yl)acetyl)piperidin-4-yl)amino)-9H-purin-9-yl)cyclobutyl)-6-methylpicolinamide], on CDK9, the “Enzyme degradation CDK9 (% remaining) @ 0.1 μM” value was determined as 70%, the “Enzyme degradation CDK9 (% remaining) @ 1 μM” value was 0% and the “Enzyme degradation CDK9 (% remaining) @ 10 μM” value is 0%. At CDK2, the “Enzyme degradation CDK2 (% remaining) @ 0.1 μM” value worked out at 70%, the “Enzyme degradation CDK2 (% remaining) @ 1 μM” value is given as 20% and the “Enzyme degradation CDK2 (% remaining) @ 10 μM” value was determined as 20%.
In the case of `CC(=O)N[C@H]1C[C@@H](n2cnc3c(NCC4CCN(CC5CCN(C(=O)CNc6ccc7c(c6)C(=O)N([C@H]6CCC(=O)NC6=O)C7=O)CC5)CC4)ncnc32)C1` [Compound 156, N-((1s,3s)-3-(6-(((1-((1-((2-(2,6-dioxopiperidin-3-yl)-1,3-dioxoisoindolin-5-yl)glycyl)piperidin-4-yl)methyl)piperidin-4-yl)methyl)amino)-9H-purin-9-yl)cyclobutyl)acetamide], at CDK9, the “Enzyme degradation CDK9 (% remaining) @ 0.1 μM” value was 80%, the “Enzyme degradation CDK9 (% remaining) @ 1 μM” value was 50% and the “Enzyme degradation CDK9 (% remaining) @ 10 μM” value is recorded as 40%. For the same compound, on CDK2, the “Enzyme degradation CDK2 (% remaining) @ 0.1 μM” value turned out to be 100%, the “Enzyme degradation CDK2 (% remaining) @ 1 μM” value was found to be 80% and the “Enzyme degradation CDK2 (% remaining) @ 10 μM” value came to 70%.
Regarding `Cc1cccc(C(=O)N[C@H]2C[C@@H](n3cnc4c(NC5CCN(CCCN6CCN(c7ccc8c(c7)C(=O)N([C@H]7CCC(=O)NC7=O)C8=O)CC6)CC5)ncnc43)C2)n1` (racemic) [Compound 41, N-((1s,3s)-3-(6-((1-(3-(4-(2-(2,6-dioxopiperidin-3-yl)-1,3-dioxoisoindolin-5-yl)piperazin-1-yl)propyl)piperidin-4-yl)amino)-9H-purin-9-yl)cyclobutyl)-6-methylpicolinamide], on CDK9, the “Enzyme degradation CDK9 (% remaining) @ 0.1 μM” value is 0/0/0%, the “Enzyme degradation CDK9 (% remaining) @ 1 μM” value is reported as 0/0/0% and the “Enzyme degradation CDK9 (% remaining) @ 10 μM” value is 0/0/0%. Also, at CDK2, the “Enzyme degradation CDK2 (% remaining) @ 0.1 μM” value was 60%, the “Enzyme degradation CDK2 (% remaining) @ 1 μM” value was determined as 60% and the “Enzyme degradation CDK2 (% remaining) @ 10 μM” value was 70%.
Consider `O=C1CC[C@H](N2C(=O)c3ccc(NCC(=O)N4CCN(CCCN5CCN(c6ccc(Nc7ncnc8c7ncn8C7CC(NC(=O)Cc8ccccc8)C7)cc6)CC5)CC4)cc3C2=O)C(=O)N1` (stereo partly drawn) [Compound 233, N-((1s,3s)-3-(6-((4-(4-(3-(4-((2-(2,6-dioxopiperidin-3-yl)-1,3-dioxoisoindolin-5-yl)glycyl)piperazin-1-yl)propyl)piperazin-1-yl)phenyl)amino)-9H-purin-9-yl)cyclobutyl)-2-phenylacetamide], for which, at CDK9, the “Enzyme degradation CDK9 (% remaining) @ 0.1 μM” value amounted to 40%, the “Enzyme degradation CDK9 (% remaining) @ 1 μM” value came to 0% and the “Enzyme degradation CDK9 (% remaining) @ 10 μM” value worked out at 0%. For the same compound, on CDK2, the “Enzyme degradation CDK2 (% remaining) @ 0.1 μM” value was 80%, the “Enzyme degradation CDK2 (% remaining) @ 1 μM” value is 80% and the “Enzyme degradation CDK2 (% remaining) @ 10 μM” value came to 70%.
On to `O=C1CC[C@H](N2C(=O)c3cccc(N4CCC(CN5CCN(c6ccc(Nc7ncnc8c7ncn8C7CC(NC(=O)Cc8ccccc8)C7)cc6)CC5)CC4)c3C2=O)C(=O)N1` (stereo partly drawn) [Compound 178, N-((1s,3s)-3-(6-((4-(4-((1-(2-(2,6-dioxopiperidin-3-yl)-1,3-dioxoisoindolin-4-yl)piperidin-4-yl)methyl)piperazin-1-yl)phenyl)amino)-9H-purin-9-yl)cyclobutyl)-2-phenylacetamide], for which, on CDK9, the “Enzyme degradation CDK9 (% remaining) @ 0.1 μM” value came to 10%, the “Enzyme degradation CDK9 (% remaining) @ 1 μM” value stood at 0% and the “Enzyme degradation CDK9 (% remaining) @ 10 μM” value is listed as 0%. Moreover, at CDK2, the “Enzyme degradation CDK2 (% remaining) @ 0.1 μM” value is on record as 30%, the “Enzyme degradation CDK2 (% remaining) @ 1 μM” value turned out to be 20% and the “Enzyme degradation CDK2 (% remaining) @ 10 μM” value is 20%.
In the case of `Cc1cccc(C(=O)NC2CC(n3cnc4c(NCc5ccc(OCCCN6CCN(C(=O)CNc7ccc8c(c7)C(=O)N([C@H]7CCC(=O)NC7=O)C8=O)CC6)cc5)ncnc43)C2)n1` (stereo partly drawn) [Compound 114, N-((1s,3s)-3-(6-((4-(3-(4-((2-(2,6-dioxopiperidin-3-yl)-1,3-dioxoisoindolin-5-yl)glycyl)piperazin-1-yl)propoxy)benzyl)amino)-9H-purin-9-yl)cyclobutyl)-6-methylpicolinamide], on CDK9, the “Enzyme degradation CDK9 (% remaining) @ 0.1 μM” value is 0/0/0%, the “Enzyme degradation CDK9 (% remaining) @ 1 μM” value is 0/0/0% and the “Enzyme degradation CDK9 (% remaining) @ 10 μM” value was 0/0/0%. For the same compound, at CDK2, the “Enzyme degradation CDK2 (% remaining) @ 0.1 μM” value is recorded as 30%, the “Enzyme degradation CDK2 (% remaining) @ 1 μM” value came to 40% and the “Enzyme degradation CDK2 (% remaining) @ 10 μM” value is 50%.
For the compound `O=C1CC[C@H](n2nnc3ccc(N4CCC(CN5CCN(c6ccc(Nc7ncnc8c7ncn8C7CC(NC(=O)Cc8ccccc8)C7)cc6)CC5)CC4)cc3c2=O)C(=O)N1` (stereo partly drawn) [Compound 307, N-((1s,3s)-3-(6-((4-(4-((1-(3-(2,6-dioxopiperidin-3-yl)-4-oxo-3,4-dihydrobenzo[d][1,2,3]triazin-6-yl)piperidin-4-yl)methyl)piperazin-1-yl)phenyl)amino)-9H-purin-9-yl)cyclobutyl)-2-phenylacetamide], at CDK9, the “Enzyme degradation CDK9 (% remaining) @ 0.1 μM” value is on record as 0/0/0%, the “Enzyme degradation CDK9 (% remaining) @ 1 μM” value is on record as 0/0/0% and the “Enzyme degradation CDK9 (% remaining) @ 10 μM” value is reported as 0/0/0%. At CDK2, the “Enzyme degradation CDK2 (% remaining) @ 0.1 μM” value is given as 0/0/0%, the “Enzyme degradation CDK2 (% remaining) @ 1 μM” value is recorded as 0/0/0% and the “Enzyme degradation CDK2 (% remaining) @ 10 μM” value was 0/0/0%.
